Experimental data taken from US20230265151A1, “GIP/GLP1 CO-AGONIST COMPOUNDS” (priority 2020, published 2023).
Where two headings read alike, the source gives them in different places. *1 amine or outer side, *2 acyl side, *3 side chain or, on linkers, in order; H or OH if unused. Where a SMILES comes first, the peptide text is derived from it. Side-chain parts run from the residue outwards. [ ]: non-standard residue; d: D form. The star is where a group is joined. αMePhe(2-F) = C[C@](N)(Cc1ccccc1F)C(=O)O; γGlu = O=C(O)[C@H](CCC(=O)[*:2])N[*:1]; αMeY = C[C@](N)(Cc1ccc(O)cc1)C(=O)O; αMeF = C[C@](N)(Cc1ccccc1)C(=O)O; 4Pal = N[C@@H](Cc1ccncc1)C(=O)O; αMeL = CC(C)C[C@](C)(N)C(=O)O; Lauroyl = CCCCCCCCCCCC(=O)*; Orn = NCCC[C@H](N)C(=O)O; AEEA = NCCOCCOCC(=O)O; Aib = CC(C)(N)C(=O)O

Legend:
Type in all cases: cell-based
hGCGR = target: T1, hGCGR (Homo sapiens, UniProt P47871); experiment: Functional cAMP formation (HTRF) in HEK-293 clonal cells expressing hGCGR, 0.1% bovine casein, without or with 1.0% human serum albumin; conditions: 37° C., geometric mean, read-out: hGCGR EC50, nM (SEM, n)
T1 construct: expressed in transfected cells
T1 sequence (P47871 26-477): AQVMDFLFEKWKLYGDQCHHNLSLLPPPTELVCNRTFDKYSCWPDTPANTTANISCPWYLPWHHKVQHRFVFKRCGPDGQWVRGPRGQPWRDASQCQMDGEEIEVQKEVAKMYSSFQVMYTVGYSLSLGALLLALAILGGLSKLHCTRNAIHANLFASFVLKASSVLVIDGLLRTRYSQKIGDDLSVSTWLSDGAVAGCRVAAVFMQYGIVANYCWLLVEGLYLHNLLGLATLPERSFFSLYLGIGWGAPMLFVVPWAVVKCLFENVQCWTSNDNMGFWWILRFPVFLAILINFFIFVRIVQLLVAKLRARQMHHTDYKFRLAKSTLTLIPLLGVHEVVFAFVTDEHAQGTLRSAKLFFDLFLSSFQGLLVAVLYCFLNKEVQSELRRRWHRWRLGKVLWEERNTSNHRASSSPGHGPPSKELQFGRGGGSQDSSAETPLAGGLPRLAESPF
Summary of the method: (§1)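 Cells were stimulated with peptide for 30 min at 37° C, then lysed in buffer carrying cAMP-d2 and anti-cAMP Eu3+-cryptate for a competitive HTRF read after at least 60 min at room temperature. The 665/620 nm ratio was converted to nM cAMP against a standard curve.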

hGIPR = target: T2, hGIPR (Homo sapiens, UniProt P48546); experiment: Functional cAMP formation (HTRF) in HEK-293 clonal cells expressing hGIPR, 0.1% bovine casein, without or with 1.0% human serum albumin; conditions: 37° C.; for EC50: geometric mean, read-out: hGIPR EC50, nM (SEM, n); for Emax: percent of maximal response to GIP(1-42)NH2, read-out: hGIPR Emax, % ± SEM
T2 construct: expressed in transfected cells
T2 sequence (P48546 22-466): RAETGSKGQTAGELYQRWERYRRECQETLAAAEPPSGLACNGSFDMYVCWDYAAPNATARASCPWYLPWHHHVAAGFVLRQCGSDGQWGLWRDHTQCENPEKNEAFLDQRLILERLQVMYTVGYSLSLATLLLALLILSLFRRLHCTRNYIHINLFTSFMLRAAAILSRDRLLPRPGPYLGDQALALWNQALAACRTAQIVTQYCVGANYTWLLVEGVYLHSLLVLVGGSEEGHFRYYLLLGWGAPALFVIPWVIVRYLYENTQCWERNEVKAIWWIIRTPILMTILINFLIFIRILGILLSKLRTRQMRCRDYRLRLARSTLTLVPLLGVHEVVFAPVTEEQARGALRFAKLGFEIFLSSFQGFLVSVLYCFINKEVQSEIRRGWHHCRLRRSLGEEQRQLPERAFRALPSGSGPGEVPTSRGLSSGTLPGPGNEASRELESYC
Summary of the method: as §1

hGLP-1R = hGLP-1R (Homo sapiens, UniProt P43220); experiment: Functional cAMP formation (HTRF) in HEK-293 clonal cells expressing hGLP-1R, 0.1% bovine casein, without or with 1.0% human serum albumin; parameters: expressed in transfected cells; conditions: 37° C.; for EC50: geometric mean, read-out: hGLP-1R EC50, nM (SEM, n); for Emax: percent of maximal response to GLP-1(7-36)NH2, read-out: hGLP-1R Emax, % ± SEM
Chain of hGLP-1R (P43220 24-463): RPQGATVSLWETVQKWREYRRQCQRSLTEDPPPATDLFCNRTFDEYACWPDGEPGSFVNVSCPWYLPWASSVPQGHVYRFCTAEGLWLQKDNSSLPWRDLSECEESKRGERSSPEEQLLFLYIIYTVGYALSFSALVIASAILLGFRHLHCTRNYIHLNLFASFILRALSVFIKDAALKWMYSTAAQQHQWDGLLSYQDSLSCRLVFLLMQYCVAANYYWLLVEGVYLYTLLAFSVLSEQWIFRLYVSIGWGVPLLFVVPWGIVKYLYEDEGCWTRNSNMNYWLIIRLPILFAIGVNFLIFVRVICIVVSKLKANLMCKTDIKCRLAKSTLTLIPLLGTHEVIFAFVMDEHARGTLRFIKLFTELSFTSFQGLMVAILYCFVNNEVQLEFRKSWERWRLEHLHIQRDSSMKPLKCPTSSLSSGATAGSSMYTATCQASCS
Summary of the method: as §1

[1] = 0.1% bovine casein and 1.0% human serum albumin
[2] = cAMP, 0.1% bovine casein (no human serum albumin)
[3] = HEK293, cAMP, 0.1% bovine casein, arithmetic mean
[4] = HEK293, 0.1% bovine casein and 1.0% human serum albumin

SMILES | EC50 (hGCGR; [1]) [nM] | EC50 (hGCGR; [2]) [nM] | EC50 (hGIPR; [1]) [nM] | EC50 (hGIPR; [2]) [nM] | EC50 (hGLP-1R; [1]) [nM] | Emax (hGLP-1R; [3]) [%] | EC50 (hGLP-1R; [2]) [nM] | Emax (hGIPR; [3]) [%] | Emax (hGIPR; [4]) [%] | Emax (hGLP-1R; [4]) [%]
CCCCCCCCCCCC(=O)N[C@@H](CCC(=O)NCCOCCOCC(=O)NCCOCCOCC(=O)NCCCC[C@H](NC(=O)[C@H](CCCN)NC(=O)[C@H](CC(=O)O)NC(=O)[C@H](CC(C)C)NC(=O)[C@](C)(CC(C)C)NC(=O)[C@@H](NC(=O)[C@H](CO)NC(=O)[C@H](Cc1ccncc1)NC(=O)[C@H](CC(=O)O)NC(=O)[C@H](CO)NC(=O)[C@@H](NC(=O)[C@](C)(Cc1ccccc1F)NC(=O)[C@@H](NC(=O)CNC(=O)[C@H](CCC(=O)O)NC(=O)C(C)(C)NC(=O)[C@@H](N)Cc1ccc(O)cc1)[C@@H](C)O)[C@@H](C)O)[C@@H](C)CC)C(=O)N[C@@H](C)C(=O)N[C@@H](CCC(N)=O)C(=O)NC(C)(C)C(=O)N[C@@H](CCCCNC(=O)COCCOCCNC(=O)COCCOCCNC(=O)CC[C@H](NC(=O)CCCCCCCCCCC)C(=O)O)C(=O)N[C@@H](Cc1ccccc1)C(=O)N[C@H](C(=O)N[C@H](CCC(=O)O)C(=O)N[C@@](C)(Cc1ccc(O)cc1)C(=O)N[C@@H](CC(C)C)C(=O)N[C@H](C(=O)N[C@@H](CCC(=O)O)C(=O)NCC(=O)NCC(N)=O)[C@@H](C)CC)[C@@H](C)CC)C(=O)O [Example 295] (H-Y[Aib]EGT[αMePhe(2-F)]TSD[4Pal]SI[αMeL]LD[Orn]K([AEEA-AEEA-γGlu-Lauroyl])AQ[Aib]K([AEEA-AEEA-γGlu-Lauroyl])FI[dE][αMeY]LIEGG-NH2; N-terminus assumed) | > 9950 | > 9950 | 1.09 | 0.0141 | 10.4 | 109 | 0.167 |  |  | 
CCCCCCCCCCCC(=O)N[C@@H](CCC(=O)NCCOCCOCC(=O)NCCOCCOCC(=O)NCCCC[C@H](NC(=O)[C@H](CCCN)NC(=O)[C@H](CC(=O)O)NC(=O)[C@H](CC(C)C)NC(=O)[C@](C)(CC(C)C)NC(=O)[C@@H](NC(=O)[C@H](CO)NC(=O)[C@H](Cc1ccncc1)NC(=O)[C@H](CC(=O)O)NC(=O)[C@H](CO)NC(=O)[C@@H](NC(=O)[C@](C)(Cc1ccccc1F)NC(=O)[C@@H](NC(=O)CNC(=O)[C@H](CCC(=O)O)NC(=O)C(C)(C)NC(=O)[C@@H](N)Cc1ccc(O)cc1)[C@@H](C)O)[C@@H](C)O)[C@@H](C)CC)C(=O)N[C@@H](C)C(=O)N[C@@H](CCC(N)=O)C(=O)NC(C)(C)C(=O)N[C@@H](CCCN)C(=O)N[C@@H](Cc1ccccc1)C(=O)N[C@H](C(=O)N[C@H](CCC(=O)O)C(=O)N[C@@](C)(Cc1ccc(O)cc1)C(=O)N[C@@H](CC(C)C)C(=O)N[C@H](C(=O)N[C@@H](CCCCNC(=O)COCCOCCNC(=O)COCCOCCNC(=O)CC[C@H](NC(=O)CCCCCCCCCCC)C(=O)O)C(=O)NCC(=O)NCC(=O)N1CCC[C@H]1C(=O)N[C@@H](CO)C(=O)N[C@@H](CO)C(=O)NCC(=O)N[C@@H](C)C(=O)N1CCC[C@H]1C(=O)N1CCC[C@H]1C(=O)N1CCC[C@H]1C(=O)N[C@@H](CO)C(N)=O)[C@@H](C)CC)[C@@H](C)CC)C(=O)O [Example 299] | > 9950 | > 9950 |  | 0.0104 |  |  | 0.126 |  |  | 
CCCCCCCCCCCC(=O)N[C@@H](CCC(=O)NCCOCCOCC(=O)NCCOCCOCC(=O)NCCCC[C@H](NC(=O)[C@H](CCCN)NC(=O)[C@H](CC(=O)O)NC(=O)[C@H](CC(C)C)NC(=O)[C@](C)(CC(C)C)NC(=O)[C@@H](NC(=O)C(C)(C)NC(=O)[C@H](Cc1ccc(O)cc1)NC(=O)[C@H](CC(=O)O)NC(=O)[C@H](CO)NC(=O)[C@@H](NC(=O)[C@](C)(Cc1ccccc1F)NC(=O)[C@@H](NC(=O)CNC(=O)[C@H](CCC(=O)O)NC(=O)C(C)(C)NC(=O)[C@@H](N)Cc1ccc(O)cc1)[C@@H](C)O)[C@@H](C)O)[C@@H](C)CC)C(=O)N[C@@H](C)C(=O)N[C@@H](CCC(N)=O)C(=O)NC(C)(C)C(=O)N[C@@H](CCCCNC(=O)COCCOCCNC(=O)COCCOCCNC(=O)CC[C@H](NC(=O)CCCCCCCCCCC)C(=O)O)C(=O)N[C@@H](Cc1ccccc1)C(=O)N[C@H](C(=O)N[C@H](CCC(=O)O)C(=O)N[C@@](C)(Cc1ccc(O)cc1)C(=O)N[C@@H](CC(C)C)C(=O)N[C@H](C(=O)N[C@@H](CCC(=O)O)C(=O)NCC(=O)NCC(=O)N1CCC[C@H]1C(=O)N[C@@H](CO)C(=O)N[C@@H](CO)C(=O)NCC(=O)N[C@@H](C)C(=O)N1CCC[C@H]1C(=O)N1CCC[C@H]1C(=O)N1CCC[C@H]1C(=O)N[C@@H](CO)C(N)=O)[C@@H](C)CC)[C@@H](C)CC)C(=O)O [Example 300] | > 9950 | > 9950 | 1.25 | 0.0128 |  |  | 0.194 |  | 91.5 | 109

The next lines start with results.

EC50 (hGCGR; [1]) [nM] | EC50 (hGCGR; [2]) [nM] | EC50 (hGIPR; [1]) [nM] | EC50 (hGIPR; [2]) [nM] | EC50 (hGLP-1R; [1]) [nM] | Emax (hGLP-1R; [3]) [%] | EC50 (hGLP-1R; [2]) [nM] | Emax (hGIPR; [3]) [%] | SMILES | Emax (hGIPR; [4]) [%] | Emax (hGLP-1R; [4]) [%]
> 9950 | > 9950 | 0.823 | 0.0121 | 13 | 109 | 0.108 | 100 | CCCCCCCCCCCC(=O)N[C@@H](CCC(=O)NCCOCCOCC(=O)NCCOCCOCC(=O)NCCCC[C@H](NC(=O)[C@H](CCCN)NC(=O)[C@H](CC(=O)O)NC(=O)[C@H](CC(C)C)NC(=O)[C@](C)(CC(C)C)NC(=O)[C@@H](NC(=O)[C@H](CO)NC(=O)[C@H](Cc1ccncc1)NC(=O)[C@H](CC(=O)O)NC(=O)[C@H](CO)NC(=O)[C@@H](NC(=O)[C@](C)(Cc1ccccc1F)NC(=O)[C@@H](NC(=O)CNC(=O)[C@H](CCC(=O)O)NC(=O)C(C)(C)NC(=O)[C@@H](N)Cc1ccc(O)cc1)[C@@H](C)O)[C@@H](C)O)[C@@H](C)CC)C(=O)N[C@@H](C)C(=O)N[C@@H](CCC(N)=O)C(=O)NC(C)(C)C(=O)N[C@@H](CCC(=O)O)C(=O)N[C@@H](Cc1ccccc1)C(=O)N[C@H](C(=O)N[C@H](CCC(=O)O)C(=O)N[C@@](C)(Cc1ccc(O)cc1)C(=O)N[C@@H](CC(C)C)C(=O)N[C@H](C(=O)N[C@@H](CCCCNC(=O)COCCOCCNC(=O)COCCOCCNC(=O)CC[C@H](NC(=O)CCCCCCCCCCC)C(=O)O)C(=O)NCC(=O)NCC(N)=O)[C@@H](C)CC)[C@@H](C)CC)C(=O)O [Example 296] (H-Y[Aib]EGT[αMePhe(2-F)]TSD[4Pal]SI[αMeL]LD[Orn]K([AEEA-AEEA-γGlu-Lauroyl])AQ[Aib]EFI[dE][αMeY]LIK([AEEA-AEEA-γGlu-Lauroyl])GG-NH2; N-terminus assumed) | 91.9 | 109
> 9950 | > 9950 | 1.54 | 0.0112 | 19.1 |  | 0.125 |  | CCCCCCCCCCCC(=O)N[C@@H](CCC(=O)NCCOCCOCC(=O)NCCOCCOCC(=O)NCCCC[C@H](NC(=O)[C@H](CCCN)NC(=O)[C@H](CC(=O)O)NC(=O)[C@H](CC(C)C)NC(=O)[C@](C)(CC(C)C)NC(=O)[C@@H](NC(=O)[C@H](CO)NC(=O)[C@H](CCCCNC(=O)COCCOCCNC(=O)COCCOCCNC(=O)CC[C@H](NC(=O)CCCCCCCCCCC)C(=O)O)NC(=O)[C@H](CC(=O)O)NC(=O)[C@H](CO)NC(=O)[C@@H](NC(=O)[C@](C)(Cc1ccccc1F)NC(=O)[C@@H](NC(=O)CNC(=O)[C@H](CCC(=O)O)NC(=O)C(C)(C)NC(=O)[C@@H](N)Cc1ccc(O)cc1)[C@@H](C)O)[C@@H](C)O)[C@@H](C)CC)C(=O)N[C@@H](C)C(=O)N[C@@H](CCC(N)=O)C(=O)NC(C)(C)C(=O)N[C@@H](CCC(=O)O)C(=O)N[C@@](C)(Cc1ccccc1)C(=O)N[C@H](C(=O)N[C@H](CCC(=O)O)C(=O)N[C@@](C)(Cc1ccc(O)cc1)C(=O)N[C@@H](CC(C)C)C(=O)N[C@H](C(=O)N[C@@H](CCC(=O)O)C(=O)NCC(=O)NCC(N)=O)[C@@H](C)CC)[C@@H](C)CC)C(=O)O [Example 297] (H-Y[Aib]EGT[αMePhe(2-F)]TSDK([AEEA-AEEA-γGlu-Lauroyl])SI[αMeL]LD[Orn]K([AEEA-AEEA-γGlu-Lauroyl])AQ[Aib]E[αMeF]I[dE][αMeY]LIEGG-NH2) |  | 
